In patent US7767409B2, “Method for detection of substance bound to nuclear receptor” (Fujikura Kasei Co., Ltd., priority 2005, dated 2010):

Columns and labels:
Type in all cases: biochemical
[1] = target: T1, human estrogen receptor β-GST fusion protein (ER-β) (Homo sapiens, UniProt Q92731); assay: Assay of ligand using coactivator SRC1-bound plate, ER-β; conditions: HRP-labeled anti-GST antibody, 450 nm, FIG. 6
T1 construct: made in house; host or cells: Escherichia coli BL21

[2] = target: T2, human estrogen receptor α-GST fusion protein (ER-α) (Homo sapiens, UniProt P03372); assay: Assay of ligand using coactivator SRC1-bound plate, ER-α (present detection method); conditions: HRP-labeled anti-GST antibody, 450 nm, FIG. 6
T2 construct: made in house; host or cells: Escherichia coli BL21
T2 sequence (P03372 311-547 limits assumed): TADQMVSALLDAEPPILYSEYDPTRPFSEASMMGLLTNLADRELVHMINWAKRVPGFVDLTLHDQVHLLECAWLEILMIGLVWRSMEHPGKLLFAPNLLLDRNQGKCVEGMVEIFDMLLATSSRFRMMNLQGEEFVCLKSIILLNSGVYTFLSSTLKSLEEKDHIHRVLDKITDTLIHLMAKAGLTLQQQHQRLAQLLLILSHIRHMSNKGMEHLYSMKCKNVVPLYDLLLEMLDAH
Procedure: In a manner similar to that of the aforementioned existing method, a purified ER-α product (10 mL) was prepared from an ER-α cell culture (1 L). By use of this product, the amount of an assay reagent prepared was examined as described hereinbelow. Avidin was immobilized on a plate in advance, and a biotinylated coactivator SRC1 (0.01 mg/mL, dissolved in DMSO) was prepared into a solution (final concentration: […]) by use of a washing buffer. The thus-prepared solution was dispensed into the plate (100 μL/well), followed by impregnation for one hour, to thereby prepare an SRC1-bound plate. […] After reaction with shaking for one hour, the plate was washed with a washing buffer, and an HRP-labeled anti-GST antibody solution prepared by diluting the antibody with a washing buffer by a factor of 1/40,000 was dispensed into the plate (100 μL/well), followed by reaction with shaking for one hour. After reaction, the plate was washed with a washing buffer; a color-developing reagent was added to the plate (100 μL/well); and the plate was allowed to stand still for 10 minutes for color development reaction. Color development reaction was stopped by use of 1 N sulfuric acid, followed by measurement at a wavelength of 450 nm by means of a plate reader.
An HRP-labeled anti-GST antibody was employed for assay.

[3] = target: T3, human liver X receptor β-GST fusion protein (LXR-β) (Homo sapiens, UniProt P55055); assay: Agonist assay with nuclear receptor-GST fusion protein, LXR-β; conditions: FIG. 9
T3 construct: made in house
T3 sequence (P55055 222-460 limits assumed): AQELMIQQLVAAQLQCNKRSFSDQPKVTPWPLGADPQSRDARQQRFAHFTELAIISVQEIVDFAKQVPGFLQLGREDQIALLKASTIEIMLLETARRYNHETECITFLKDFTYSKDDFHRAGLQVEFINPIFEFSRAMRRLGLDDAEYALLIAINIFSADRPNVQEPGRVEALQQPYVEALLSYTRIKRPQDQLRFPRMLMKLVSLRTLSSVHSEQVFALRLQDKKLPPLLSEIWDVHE

[4] = target: T4, human liver X receptor α-GST fusion protein (LXR-α) (Homo sapiens, UniProt Q13133); assay: Agonist assay with nuclear receptor-GST fusion protein, LXR-α; conditions: FIG. 9
T4 construct: made in house
T4 sequence (Q13133 209-447 limits assumed): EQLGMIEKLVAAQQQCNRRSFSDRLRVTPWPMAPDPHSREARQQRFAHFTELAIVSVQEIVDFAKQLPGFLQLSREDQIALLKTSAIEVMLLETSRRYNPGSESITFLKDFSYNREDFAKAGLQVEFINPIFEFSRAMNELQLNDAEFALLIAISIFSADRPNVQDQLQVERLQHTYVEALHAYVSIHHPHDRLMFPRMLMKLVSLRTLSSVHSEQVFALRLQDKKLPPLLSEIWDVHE

T1 sequence (Q92731 264-498 limits assumed): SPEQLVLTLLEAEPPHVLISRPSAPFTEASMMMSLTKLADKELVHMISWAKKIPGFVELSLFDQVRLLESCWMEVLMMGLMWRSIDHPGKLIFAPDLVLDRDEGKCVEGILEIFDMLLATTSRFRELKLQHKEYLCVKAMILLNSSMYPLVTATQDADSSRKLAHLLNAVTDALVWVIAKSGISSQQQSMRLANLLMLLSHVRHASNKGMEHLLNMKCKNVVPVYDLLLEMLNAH

Row | Molecule | OD (binding of receptor to immobilized coactivator), agonist mode [1] | OD (binding of receptor to immobilized coactivator), agonist mode [2] | OD, agonist dose dependence [3] | OD, agonist dose dependence [4]
1 | CC(C)(c1ccc(O)cc1)c1ccc(O)cc1 [bisphenol A] | increase in OD was observed | increase in OD was observed | – | –
2 | nonylphenol | increase in OD was observed | increase in OD was observed | – | –
3 | O=S(=O)(c1ccccc1)N(CC(F)(F)F)c1ccc(C(O)(C(F)(F)F)C(F)(F)F)cc1 [TO-901317] | – | – | OD was increased in a manner dependent on the dose of the corresponding agonist | OD was increased in a manner dependent on the dose of the corresponding agonist
4 | CC/C(=C(/CC)c1ccc(O)cc1)c1ccc(O)cc1 [diethylstilbestrol] | increase in OD was observed | – | – | –
